Assay results as given in patent US4704451A, “Mitogenic peptides” (Washington University, priority 1985, dated 1987).

Assays:
[1] = tested on: J774 murine macrophage-like cells; assay: 3[H]-TdR incorporation in growth-arrested J774 cells; type: cell-based
Method: (§1) The growth stimulation of macrophage-like cells can be determined by measuring the thymidine uptake of the cells at varying concentrations of the mitogenic peptides of the present invention. This was determined for several macrophage-like cell lines including J774, P388Dl, RAW and PU5. These are well-known murine cell lines available, for example, from the American Type Culture Collection, Rockville, Md.
(§2) ^3 [H]-TdR incorporation. Various cell lines were plated in Dulbeccos's Modified Eagle Medium (DMEM) containing 10% fetal calf serum (FCS) in […] humidified atmosphere at 37° C. at an initial density of 5×10^5 per well in 24 well disposable plastic plates (Falcon, Oxnard, Calif.). Arrest of DNA synthesis (i.e., G0 /G1) was achieved by incubating the cells for 48 hours in serum-free DMEM containing 0.1% bovine serum albumin (BSA). The cells were then exposed to the peptide or to various […], or to FCS for 48 hours. Enhanced thymidine incorporation was assessed following a 2 hour pulse of N-methyl^3 [H]-TdR (1 μCi/ml). The cells were washed ×3 in PBS (phosphate buffered saline, pH 7.4) at 4, precipitated with 10% trichloroacetic acid (30 min at 4) and the insoluble material extracted ×2 with ETOH:ET2 O (3:1 v/v). The precipitate was solubilized in N NaOH and aliquots withdrawn for protein determinations using a dye-binding assay (Bio Rad Labs., Richmond, Calif.) and liquid scintillation spectrometry.
The various cell lines employed in these tests were the murine macrophage-like cell lines J774, P388D1, RAW and PU5. The various […] used in these tests were platelet-derived growth factor (PDGF), epidermal growth factor (EGF), fibroblast growth factor (FGF), and nerve growth factor (NGF). For background information on these known polypeptide growth factors, see, for example, the recent review article by Kris is et al., Biotechnology, February 1985, pp. 135-140; and the comprehensive review in Hormonal Proteins and Peptides, Ed. by Choh Hao Li, Vol. 12, "Growth Factors," Academic Press, 1984. EGF, NGF and FGF are commercially available from Biomedical Technologies, Cambridge, Mass. In a representative test, 24 hours following exposure of the growth-arrested cells to optimal concentrations of the peptide (i.e., 10^-8 M), cell numbers increased approximately two-fold from a control value of […] cells/culture well. […] The results are set forth in FIG. 2 and in Table I, below. In FIG. 2, the baseline tritiated thymidine (^3 [H]-TdR) incorporation in quiescent J774 cells was 5000 cpm±420 s.e.m. (standard error of the mean) per well. The results are expressed as the mean of triplicate determinations.

[2] = tested on: murine macrophage-like cell lines J774, P388D1, RAW and PU5; assay: Cell number (proliferation) of growth-arrested macrophage-like cells; type: cell-based; details: 24 hours after exposure of growth-arrested cells to 10^-8 M (optimal concentration)
Method: as §2
The various cell lines employed in these tests were the murine macrophage-like cell lines J774, P388D1, RAW and PU5. The various […] used in these tests were platelet-derived growth factor (PDGF), epidermal growth factor (EGF), fibroblast growth factor (FGF), and nerve growth factor (NGF). […] The results are expressed as the mean of triplicate determinations.

[3] = tested on: RAW macrophage-like cell line; assay: 3[H]-TdR incorporation in growth-arrested RAW cells; type: cell-based, murine; details: test (2), 10^-8 M (optimal concentration), mean ± s.e.m.
Method: as §1
(§3) ^3 [H]-TdR incorporation. Various cell lines were plated in Dulbeccos's Modified Eagle Medium (DMEM) containing 10% fetal calf serum (FCS) in […] humidified atmosphere at 37° C. at an initial density of 5×10^5 per well in 24 well disposable plastic plates (Falcon, Oxnard, Calif.). Arrest of DNA synthesis (i.e., G0 /G1) was achieved by incubating the cells for 48 hours in serum-free DMEM containing 0.1% bovine serum albumin (BSA). The cells were then exposed to the peptide or to various […], or to FCS for 48 hours. Enhanced thymidine incorporation was assessed following a 2 hour pulse of N-methyl^3 [H]-TdR (1 μCi/ml). […]
(§4) The various cell lines employed in these tests were the murine macrophage-like cell lines J774, P388D1, RAW and PU5. […] The results are expressed as the mean of triplicate determinations.

[4] = tested on: P388D1 macrophage-like cell line; assay: 3[H]-TdR incorporation in growth-arrested P388D1 cells; type: cell-based, murine; details: test (2), P388D1, 10^-7 M (optimal concentration), mean ± s.e.m.
Method: as §1, §3, §4

[5] = tested on: PU5 macrophage-like cell line; assay: 3[H]-TdR incorporation in growth-arrested PU5 cells; type: cell-based, murine; details: test (2), PU5, 10^-6 M (optimal concentration), mean ± s.e.m.
Method: as §1, §3, §4

[6] = tested on: macrophage-like cells; assay: Mitogenic activity for macrophage-like cells; type: cell-based
Method: as §1

[7] = test (1), J774, >500 ng per well (highest concentration tested), mean ± s.e.m.

fibroblast growth factor [FGF]
3[H]-TdR Incorporation/mg Protein (% Increase) [1, 7]: 0 ± 0.4 % Increase

platelet-derived growth factor [PDGF]
3[H]-TdR Incorporation/mg Protein (% Increase) [1, 7]: 9.4 ± 0.3 % Increase

epidermal growth factor [EGF]
3[H]-TdR Incorporation/mg Protein (% Increase) [1, 7]: 5.2 ± 0.2 % Increase

H-YPPWNKNFTENDLL-OH [Peptide I, H-Tyr-Pro-Pro-Trp-Asn-Lys-Asn-Phe-Thr-Glu-Asn-Asp-Leu-Leu-OH]
increase of cell numbers over control [2]: approximately two-fold | 3[H]-TdR Incorporation/mg Protein (% Increase) ([1]; test (1), J774, 10^-8 M (optimal concentration), 48 h exposure, mean ± s.e.m. of triplicate cultures): 140± 8.5 % Increase | 3[H]-TdR Incorporation/mg Protein (% Increase) ([1]; test (2), J774, 10^-8 M (optimal concentration), mean ± s.e.m.): 190± 12 % Increase | 3[H]-TdR Incorporation/mg Protein (% Increase) [3]: 276± 18 % Increase | 3[H]-TdR Incorporation/mg Protein (% Increase) [4]: 226± 22 % Increase | 3[H]-TdR Incorporation/mg Protein (% Increase) [5]: 112± 4.4 % Increase

H-TENDLL-OH [Peptide III, H-Thr-Glu-Asn-Asp-Leu-Leu-OH]
mitogenic activity for macrophage-like cells [6]: inactive

nerve growth factor [NGF]
3[H]-TdR Incorporation/mg Protein (% Increase) [1, 7]: 0 ± 0.5 % Increase

H-NKNFTENDLL-OH [Peptide IV, H-Asn-Lys-Asn-Phe-Thr-Glu-Asn-Asp-Leu-Leu-OH]
mitogenic activity for macrophage-like cells [6]: inactive
